Source: ChEMBL document CHEMBL4229330, “Synthesis and evaluation of C2 functionalized analogs of the α-tubulin-binding natural product pironetin” (Bioorg Med Chem Lett, 2018)

Columns and labels:
Format in all cases: cell-based
A2780 [1] = assay: Binding affinity to alpha tubulin in human A2780 cells assessed as disruption of tubulin polymerization by measuring cell proliferation at higher concentration after 48 hrs by CellTiter non-radioactive assay relative to control
A2780 [2] = assay: Binding affinity to alpha tubulin in human A2780 cells assessed as disruption of tubulin polymerization by measuring reduction in cell proliferation after 48 hrs by CellTiter non-radioactive assay
Homo sapiens = organism: Homo sapiens; assay: Binding affinity to alpha tubulin in human OVCAR5 cells assessed as disruption of tubulin polymerization by measuring reduction in cell proliferation after 48 hrs by CellTiter non-radioactive assay

Row | GI50 (A2780 [2]) | Structure (SMILES) | Activity (A2780 [1]) | GI50 (Homo sapiens)
1 | 5110 nM | C/C=C/C[C@H](C)[C@@H](OC)[C@@H](C)[C@H](O)C[C@H]1OC(=O)C(F)=C[C@H]1CC | 10 to 20% | 3240 nM
2 | 4480 nM | C/C=C/C[C@H](C)[C@@H](OC)[C@@H](C)[C@H](O)C[C@H]1OC(=O)C(Cl)=C[C@H]1CC | 10 to 20% | 1080 nM
3 | 10200 nM | C/C=C/C[C@H](C)[C@@H](OC)[C@@H](C)[C@H](O)C[C@H]1OC(=O)C(C)=C[C@H]1CC | 10 to 20% | 3360 nM
4 | 901 nM | C/C=C/C[C@H](C)[C@@H](OC)[C@@H](C)[C@H](O)C[C@H]1OC(=O)C(Br)=C[C@H]1CC | < 10% | 44.9 to 26200 nM

The next lines start with the compound.

Row | Structure (SMILES) | GI50 (A2780 [2]) | Activity (A2780 [1]) | GI50 (Homo sapiens)
5 | C/C=C/C[C@H](C)[C@@H](OC)[C@@H](C)[C@H](O)C[C@H]1OC(=O)C(c2ccccc2)=C[C@H]1CC | > 50000 nM | 10 to 20% | > 50000 nM
6 | C/C=C/C[C@H](C)[C@@H](OC)[C@@H](C)[C@H](O)C[C@H]1OC(=O)C=C[C@H]1CC | 24.3 nM | 10 to 20% | 14.4 nM
7 | CC(=O)O[C@H]1C(=O)[C@@]2(C)[C@H]([C@H](OC(=O)c3ccccc3)[C@]3(O)C[C@H](OC(=O)[C@H](O)[C@@H](NC(=O)c4ccccc4)c4ccccc4)C(C)=C1C3(C)C)[C@]1(OC(C)=O)CO[C@@H]1C[C@@H]2O | 7.53 nM | 10 to 20% | 21 nM
